Data taken from US20220363686A1 (AiCuris GmbH & Co. KG, priority 2018, published 2022).
pEC50, pIC50: −log10 of the molar value.

Columns and labels:
[1] = Cell viability assay (AlamarBlue); settings: human, HepAD38 cells
[2] = target: HBV core protein (C-terminal truncated core protein containing 149 amino acids of the N-terminal assembly domain) (UniProt P03146); assay: Biochemical capsid assembly assay (fluorescence quenching); set-up: rows headed: Assembly Activity; other: BODIPY-FL labelled core protein, assembly started with NaCl, read after 6 min; settings: read-out: Assembly Activity; BODIPY-FL labelled core protein, assembly started with NaCl, read after 6 min
Method in brief: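 N-terminal assembly domain (residues 1–149) plus C-terminal Cys150, E. coli-expressed, BODIPY-FL-maleimide labelled, used at 1.0–2.0 μM in 50 mM HEPES pH 7.5 with 0.5% DMSO. Assembly started with NaCl ([…]); fluorescence quenching (ex 477/em 525 nm) read after 6 min. 8-point compound series; EC50 by non-linear regression.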

[3] = tested on: HBV; assay: Determination of HBV DNA from the supernatants of HepAD38 cells (anti-HBV activity); assay type: cell-based, hepatitis B virus; settings: Hepatitis B virus, HePAD38, 144 h, HBV DNA in HepAD38 supernatant, day 6, qPCR; read-out: Cell Activity
Method in brief: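 EC50 derived by non-linear regression of relative HBV DNA copy numbers, measured by qPCR (plasmid standards) in day-6 filtered supernatants. Before this, HepAD38 cells were exposed to serial half-log compound dilutions without tetracycline, releasing viral expression; cultures kept at 37 °C, 5% CO2.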

Chain of HBV core protein (C-terminal truncated core protein containing 149 amino acids of the N-terminal assembly domain) (P03146 whole entry, the tested form may be a part): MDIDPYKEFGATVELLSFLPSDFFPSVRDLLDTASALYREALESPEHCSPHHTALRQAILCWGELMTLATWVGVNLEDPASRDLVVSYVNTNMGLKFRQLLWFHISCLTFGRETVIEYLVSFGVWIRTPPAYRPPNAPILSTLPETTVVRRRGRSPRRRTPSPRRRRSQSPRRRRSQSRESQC

Compound | CC50 at 6 days [1] [µM] | pIC50 [2] | pEC50 [3]
O=C(c1cc2ccccc2[nH]1)N1CCn2ncc(N3CC4(CC4)CC3=O)c2C1 [Example 49, 5-[5-(1H-indole-2-carbonyl)-4H,5H,6H,7H-pyrazolo[1,5-a]pyrazin-3-yl]-5-azaspiro[2.4]heptan-6-one] | > 10 | > 5.30 | > 6.00
CN(C(=O)c1cnn2c1CN(C(=O)c1cc3ccccc3[nH]1)CC2)C1(c2ccc(CO)cc2)CC1 [Example 91, N-{1-[4-(hydroxymethyl)phenyl]cyclopropyl}-5-(1H-indole-2-carbonyl)-N-methyl-4H,5H,6H,7H-pyrazolo[1,5-a]pyrazine-3-carboxamide] | > 10 | > 5.30 | > 6.00
Cc1c(F)ccc2[nH]c(C(=O)N3CCn4ncc(C(=O)NC5(COC(F)F)CC5)c4C3)cc12 [Example 103, N-{1-[(difluoromethoxy)methyl]cyclopropyl}-5-(5-fluoro-4-methyl-1H-indole-2-carbonyl)-4H,5H,6H,7H-pyrazolo[1,5-a]pyrazine-3-carboxamide] | > 10 | > 5.30 | > 6.00
CN(C(=O)c1cnn2c1CN(C(=O)c1cc3ccccc3[nH]1)CC2)C1(COC(F)F)CC1 [Example 16, N-{1-[(difluoromethoxy)methyl]cyclopropyl}-5-(1H-indole-2-carbonyl)-N-methyl-4H,5H,6H,7H-pyrazolo[1,5-a]pyrazine-3-carboxamide] | > 10 | > 5.30 | > 6.00
CCc1cccc2[nH]c(C(=O)N3CCn4ncc(C(=O)N(C)C5(CO)CC5)c4C3)cc12 [Example 95, 5-(4-ethyl-1H-indole-2-carbonyl)-N-[1-(hydroxymethyl)cyclopropyl]-N-methyl-4H,5H,6H,7H-pyrazolo[1,5-a]pyrazine-3-carboxamide] | > 10 | > 5.30 | > 6.00
CC1Cn2ncc(C(=O)N(C)C3CC3)c2CN1C(=O)c1cc2ccccc2[nH]1 (racemic) [Example 2, N-cyclopropyl-5-(1H-indole-2-carbonyl)-N,6-dimethyl-4H,5H,6H,7H-pyrazolo[1,5-a]pyrazine-3-carboxamide] | > 10 | > 5.30 | > 6.00
CN(C(=O)c1cnn2c1CN(C(=O)c1cc3ccccc3[nH]1)CC2)C1(C2OCCO2)CC1 [Example 138, N-[1-(1,3-dioxolan-2-yl)cyclopropyl]-5-(1H-indole-2-carbonyl)-N-methyl-4H,5H,6H,7H-pyrazolo[1,5-a]pyrazine-3-carboxamide] | > 10 | > 5.30 | > 6.00
O=C(NC1(CCOC(F)F)CCOCC1)c1cnn2c1CN(C(=O)c1cc3ccccc3[nH]1)CC2 [Example 125, N-{4-[2-(difluoromethoxy)ethyl]oxan-4-yl}-5-(1H-indole-2-carbonyl)-4H,5H,6H,7H-pyrazolo[1,5-a]pyrazine-3-carboxamide] | > 10 | > 5.30 | > 6.00
O=C(NCCOC(F)F)c1cnn2c1CN(C(=O)c1cc3ccccc3[nH]1)CC2 [Example 54, N-[2-(difluoromethoxy)ethyl]-5-(1H-indole-2-carbonyl)-4H,5H,6H,7H-pyrazolo[1,5-a]pyrazine-3-carboxamide] | > 10 | > 5.30 | 5.00 to 6.00
CN(C(=O)c1cnn2c1CN(C(=O)c1cc3cc(F)c(Cl)cc3[nH]1)CC2)C1(COC(F)F)CC1 [Example 23, 5-(6-chloro-5-fluoro-1H-indole-2-carbonyl)-N-{1-[(difluoromethoxy)methyl]cyclopropyl}-N-methyl-4H,5H,6H,7H-pyrazolo[1,5-a]pyrazine-3-carboxamide] | > 10 | > 5.30 | > 6.00
CN(C)S(=O)(=O)c1cnn2c1CN(C(=O)c1cc3ccccc3[nH]1)CC2 [Example 40, 5-(1H-indole-2-carbonyl)-N,N-dimethyl-4H,5H,6H,7H-pyrazolo[1,5-a]pyrazine-3-sulfonamide] | > 10 | > 5.30 | > 6.00
NS(=O)(=O)c1cnn2c1CN(C(=O)c1cc3ccccc3[nH]1)CC2 [Example 26, 5-(1H-indole-2-carbonyl)-4H,5H,6H,7H-pyrazolo[1,5-a]pyrazine-3-sulfonamide] | > 10 | > 5.30 | > 6.00
CC1Cn2ncc(C(=O)N[C@H](C)C(F)(F)F)c2CN1C(=O)c1cc2c(F)c(F)ccc2[nH]1 (stereo partly drawn) [Example 143, 5-(4,5-difluoro-1H-indole-2-carbonyl)-6-methyl-N-[(2R)-1,1,1-trifluoropropan-2-yl]-4H,5H,6H,7H-pyrazolo[1,5-a]pyrazine-3-carboxamide] | > 10 | > 5.30 | > 6.00
O=C(c1cc2ccccc2[nH]1)N1CCn2ncc(S(=O)(=O)N3CCCC3)c2C1 [Example 39, 2-[3-(pyrrolidine-1-sulfonyl)-4H,5H,6H,7H-pyrazolo[1,5-a]pyrazine-5-carbonyl]-1H-indole] | > 10 | > 5.30 | > 6.00
O=C(c1cc2ccccc2[nH]1)N1CCn2ncc(C(=O)N(CCOC(F)F)C3CC3)c2C1 [Example 90, N-cyclopropyl-N-[2-(difluoromethoxy)ethyl]-5-(1H-indole-2-carbonyl)-4H,5H,6H,7H-pyrazolo[1,5-a]pyrazine-3-carboxamide] | > 10 | > 5.30 | > 6.00
O=C(NC1(COC(F)F)CC1)c1cnn2c1CN(C(=O)c1cc3ccccc3[nH]1)CC2 [Example 97, N-{1-[(difluoromethoxy)methyl]cyclopropyl}-5-(1H-indole-2-carbonyl)-4H,5H,6H,7H-pyrazolo[1,5-a]pyrazine-3-carboxamide] | > 10 | > 5.30 | > 6.00
O=C(c1cc2c(F)c(F)ccc2[nH]1)N1CCn2ncc(C(=O)N3CCCOCC34CC4)c2C1 [Example 109, 4-[5-(4,5-difluoro-1H-indole-2-carbonyl)-4H,5H,6H,7H-pyrazolo[1,5-a]pyrazine-3-carbonyl]-8-oxa-4-azaspiro[2.6]nonane] | > 10 | > 5.30 | > 6.00
O=C(c1cc2ccccc2[nH]1)N1CCn2ncc(C3(O)CCC3)c2C1 [Example 45, 1-[5-(1H-indole-2-carbonyl)-4H,5H,6H,7H-pyrazolo[1,5-a]pyrazin-3-yl]cyclobutan-1-ol] | > 10 | 5.00 to 5.30 | 5.00 to 6.00
CCc1cc(F)cc2[nH]c(C(=O)N3CCn4ncc(C(=O)N(C)C5(CO)CC5)c4C3)cc12 [Example 14, 5-(4-ethyl-6-fluoro-1H-indole-2-carbonyl)-N-[1-(hydroxymethyl)cyclopropyl]-N-methyl-4H,5H,6H,7H-pyrazolo[1,5-a]pyrazine-3-carboxamide] | > 10 | > 5.30 | > 6.00
CC(C)OCC1(N(C)C(=O)c2cnn3c2CN(C(=O)c2cc4ccccc4[nH]2)CC3)CC1 [Example 11, 5-(1H-indole-2-carbonyl)-N-methyl-N-{1-[(propan-2-yloxy)methyl]cyclopropyl}-4H,5H,6H,7H-pyrazolo[1,5-a]pyrazine-3-carboxamide] | > 10 | > 5.30 | > 6.00
